For the assay, the target named is T1, human NK2 receptor (Homo sapiens, UniProt P21452).
T1 construct: purchased Perkin Elmer biosignal Inc. 6110510
T1 sequence (P21452 1-398): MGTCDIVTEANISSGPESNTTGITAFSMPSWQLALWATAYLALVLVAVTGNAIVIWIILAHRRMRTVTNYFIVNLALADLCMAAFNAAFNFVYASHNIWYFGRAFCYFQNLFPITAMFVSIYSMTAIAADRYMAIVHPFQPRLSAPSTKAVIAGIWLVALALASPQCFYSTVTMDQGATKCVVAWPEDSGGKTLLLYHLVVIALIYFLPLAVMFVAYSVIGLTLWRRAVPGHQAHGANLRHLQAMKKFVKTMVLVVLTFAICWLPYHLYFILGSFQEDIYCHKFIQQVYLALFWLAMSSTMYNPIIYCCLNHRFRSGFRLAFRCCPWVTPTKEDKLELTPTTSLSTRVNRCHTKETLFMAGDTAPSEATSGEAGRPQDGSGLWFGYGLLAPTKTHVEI
The experiment in a line: [3H]SR48968 competition binding assay. Conditions: [3H]SR48968 displacement, membranes of CHO cells stably expressing recombinant human NK2 receptor; Ki from IC50 by Cheng-Prussoff. The procedure:
[^3H]SR48968 Competition Binding Assay
hNK2 receptor binding experiment were performed using [^3H]SR48968 (Catalog No. TRK398, specific activity: 27.0 Ci/mmol, Amersham, GE Healthcare UK limited, Buckinghamshire, UK) and membrane isolated from CHO cells stably expressing recombinant human NK2 receptor (product No. 6110510, Perkin Elmer biosignal Inc., Shelton, Conn., USA). After thawing, the membrane homogenates were centrifuged at 48,000×g for 10 min at 4° C., the pellets were resuspended in the 50 mM Tris-HCl, 3 mM MnCl2, 4 μg/mL Chymostatin, 0.04% BSA binding buffer at pH 7.4 to a final assay concentration of 6.5 μg protein/well. For inhibition experiments, membranes were incubated with [^3H]SR48968 at a concentration equal to KD value of radioligand and 10 concentrations of the inhibitory compound (0.0003-10 μM) (in a total reaction volume of 500 μl) for 75 min at room temperature (RT). At the end of the incubation, membranes were filtered onto unitfilter (96-well white microplate with bonded GF/C filter preincubated 1 h in 0.3% polyethylenimine, Packard BioScience, Meriden, Conn.) with a Filtermate 196 harvester (Packard BioScience) and washed 4 times with ice-cold 50 mM Tris-HCl, pH 7.4 buffer. Nonspecific binding was measured in the presence of 10 μM 1-{2-[(R)-3-(3,4-dichloro-phenyl)-1-(3,4,5-trimethoxy-benzoyl)-pyrrolidin-3-yl]-ethyl}-4-phenyl-piperidine-4-carboxylic acid amide. The radioactivity on the filter was counted (5 min) on a Packard Top-count microplate scintillation counter with quenching correction after addition of 45 μl of microscint 40 (Canberra Packard S. A., Zürich, Switzerland) and shaking for 1 h. Inhibition curves were fitted according to the Hill equation: y=100/(1+(x/IC50)^nH), where nH=slope factor using Excel-fit 4 software (Microsoft). IC50 values were derived from the inhibition curve and the affinity constant (Ki) values were calculated using the Cheng-Prussoff equation Ki=IC50/(1+[L]/KD) where [L] was the concentration of radioligand and KD was its dissociation constant at the receptor, derived from the saturation isotherm.

Broadly, the Ki is the equilibrium dissociation constant of an inhibitor or competing ligand from its target.

Molecules are shown by their SMILES.

With `COc1ccc(C(=O)N(C)[C@@H]2CN(C(=O)N3CCN(S(C)(=O)=O)CC3)C[C@H]2c2ccc(Cl)cc2)cc1C(F)(F)F` (racemic) [Example 6, rac-N-[(3S,4R)-4-(4-Chloro-phenyl)-1-(4-methanesulfonyl-piperazine-1-carbonyl)-pyrrolidin-3-yl]-4-methoxy-N-methyl-3-trifluoromethyl-benzamide], the Ki was 10.7 nM. For the compound `CN(C(=O)c1cccc(C(F)(F)F)c1)[C@@H]1CN(C(=O)N2CCN(S(C)(=O)=O)CC2)C[C@H]1c1ccc(Cl)cc1` (racemic) [Example 7, rac-N-[(3S,4R)-4-(4-Chloro-phenyl)-1-(4-methanesulfonyl-piperazine-1-carbonyl)-pyrrolidin-3-yl]-N-methyl-3-trifluoromethyl-benzamide], the Ki was determined as 33.9 nM.

Consider `COc1ccc(C(=O)N(C)[C@@H]2CN(C(=O)N3CCN(S(C)(=O)=O)CC3)C[C@H]2c2ccc(Cl)c(Cl)c2)cc1C(F)(F)F` (racemic) [Example 8, rac-N-[(3S,4R)-4-(3,4-Dichloro-phenyl)-1-(4-methanesulfonyl-piperazine-1-carbonyl)-pyrrolidin-3-yl]-4-methoxy-N-methyl-3-trifluoromethyl-benzamide], for which the inhibition constant Ki was determined as 2.33 nM.

Turning to `CN(C(=O)c1ccccc1)[C@@H]1CN(C(=O)N2CCN(S(C)(=O)=O)CC2)C[C@H]1c1ccc(Cl)c(Cl)c1` (racemic) [Example 9, rac-N-[(3S,4R)-4-(3,4-Dichloro-phenyl)-1-(4-methanesulfonyl-piperazine-1-carbonyl)-pyrrolidin-3-yl]-N-methyl-benzamide], the Ki was 86.9 nM. Take `CN(C(=O)c1ccc(F)cc1)[C@@H]1CN(C(=O)N2CCN(S(C)(=O)=O)CC2)C[C@H]1c1ccc(Cl)c(Cl)c1` (racemic) [Example 10, rac-N-[(3S,4R)-4-(3,4-Dichloro-phenyl)-1-(4-methanesulfonyl-piperazine-1-carbonyl)-pyrrolidin-3-yl]-4-fluoro-N-methyl-benzamide]: the inhibition constant (Ki) was 28.8 nM. In the case of `CN(C(=O)c1cccc(Cl)c1)[C@@H]1CN(C(=O)N2CCN(S(C)(=O)=O)CC2)C[C@H]1c1ccc(Cl)c(Cl)c1` (racemic) [Example 11, rac-3-Chloro-N-[(3S,4R)-4-(3,4-dichloro-phenyl)-1-(4-methanesulfonyl-piperazine-1-carbonyl)-pyrrolidin-3-yl]-N-methyl-benzamide] it was 14.3 nM; in that of `CN(C(=O)c1ccc(Cl)cc1)[C@@H]1CN(C(=O)N2CCN(S(C)(=O)=O)CC2)C[C@H]1c1ccc(Cl)c(Cl)c1` (racemic) [Example 12, rac-4-Chloro-N-[(3S,4R)-4-(3,4-dichloro-phenyl)-1-(4-methanesulfonyl-piperazine-1-carbonyl)-pyrrolidin-3-yl]-N-methyl-benzamide], 2.75 nM; in that of `CN(C(=O)c1ccc(C#N)cc1)[C@@H]1CN(C(=O)N2CCN(S(C)(=O)=O)CC2)C[C@H]1c1ccc(Cl)c(Cl)c1` (racemic) [Example 13, rac-4-Cyano-N-[(3S,4R)-4-(3,4-dichloro-phenyl)-1-(4-methanesulfonyl-piperazine-1-carbonyl)-pyrrolidin-3-yl]-N-methyl-benzamide], 23.7 nM.

On to `CCc1ccc(C(=O)N(C)[C@@H]2CN(C(=O)N3CCN(S(C)(=O)=O)CC3)C[C@H]2c2ccc(Cl)c(Cl)c2)cc1` (racemic) [Example 14, rac-N-[(3S,4R)-4-(3,4-Dichloro-phenyl)-1-(4-methanesulfonyl-piperazine-1-carbonyl)-pyrrolidin-3-yl]-4-ethyl-N-methyl-benzamide], for which the Ki was 1.17 nM.

As to `CN(C(=O)c1cccc(C#N)c1)[C@@H]1CN(C(=O)N2CCN(S(C)(=O)=O)CC2)C[C@H]1c1ccc(Cl)c(Cl)c1` (racemic) [Example 15, rac-3-Cyano-N-[(3S,4R)-4-(3,4-dichloro-phenyl)-1-(4-methanesulfonyl-piperazine-1-carbonyl)-pyrrolidin-3-yl]-N-methyl-benzamide], the Ki turned out to be 65.2 nM. In the case of `CN(C(=O)c1ccc(OC(F)(F)F)cc1)[C@@H]1CN(C(=O)N2CCN(S(C)(=O)=O)CC2)C[C@H]1c1ccc(Cl)c(Cl)c1` (racemic) [Example 16, rac-N-[(3S,4R)-4-(3,4-Dichloro-phenyl)-1-(4-methanesulfonyl-piperazine-1-carbonyl)-pyrrolidin-3-yl]-N-methyl-4-trifluoromethoxy-benzamide] it was 5.09 nM; in that of `CN(C(=O)c1cccc(F)c1)[C@@H]1CN(C(=O)N2CCN(S(C)(=O)=O)CC2)C[C@H]1c1ccc(Cl)c(Cl)c1` (racemic) [Example 17, rac-N-[(3S,4R)-4-(3,4-Dichloro-phenyl)-1-(4-methanesulfonyl-piperazine-1-carbonyl)-pyrrolidin-3-yl]-3-fluoro-N-methyl-benzamide], 95.3 nM; in that of `CN(C(=O)c1cc(F)cc(C(F)(F)F)c1)[C@@H]1CN(C(=O)N2CCN(S(C)(=O)=O)CC2)C[C@H]1c1ccc(Cl)c(Cl)c1` (racemic) [Example 18, rac-N-[(3S,4R)-4-(3,4-Dichloro-phenyl)-1-(4-methanesulfonyl-piperazine-1-carbonyl)-pyrrolidin-3-yl]-3-fluoro-N-methyl-5-trifluoromethyl-benzamide], 20.7 nM. In the case of `CN(C(=O)c1ccc(C(F)(F)F)c(F)c1)[C@@H]1CN(C(=O)N2CCN(S(C)(=O)=O)CC2)C[C@H]1c1ccc(Cl)c(Cl)c1` (racemic) [Example 20, rac-N-[(3S,4R)-4-(3,4-Dichloro-phenyl)-1-(4-methanesulfonyl-piperazine-1-carbonyl)-pyrrolidin-3-yl]-3-fluoro-N-methyl-4-trifluoromethyl-benzamide] it was 2.44 nM; in that of `CN(C(=O)c1cccc(Cl)c1F)[C@@H]1CN(C(=O)N2CCN(S(C)(=O)=O)CC2)C[C@H]1c1ccc(Cl)c(Cl)c1` (racemic) [Example 21, rac-3-Chloro-N-[(3S,4R)-4-(3,4-dichloro-phenyl)-1-(4-methanesulfonyl-piperazine-1-carbonyl)-pyrrolidin-3-yl]-2-fluoro-N-methyl-benzamide], 13.1 nM. `CN(C(=O)c1cccc(C(F)(F)F)c1F)[C@@H]1CN(C(=O)N2CCN(S(C)(=O)=O)CC2)C[C@H]1c1ccc(Cl)c(Cl)c1` (racemic) [Example 22, rac-N-[(3S,4R)-4-(3,4-Dichloro-phenyl)-1-(4-methanesulfonyl-piperazine-1-carbonyl)-pyrrolidin-3-yl]-2-fluoro-N-methyl-3-trifluoromethyl-benzamide]: the Ki is 4.63 nM.

As to `CN(C(=O)c1ccc2occc2c1)[C@@H]1CN(C(=O)N2CCN(S(C)(=O)=O)CC2)C[C@H]1c1ccc(Cl)c(Cl)c1` (racemic) [Example 23, rac-Benzofuran-5-carboxylic acid [(3S,4R)-4-(3,4-dichloro-phenyl)-1-(4-methanesulfonyl-piperazine-1-carbonyl)-pyrrolidin-3-yl]-methyl-amide], the inhibition constant Ki turned out to be 10.2 nM. Take `CN(C)c1ccc(C(=O)N(C)[C@@H]2CN(C(=O)N3CCN(S(C)(=O)=O)CC3)C[C@H]2c2ccc(Cl)c(Cl)c2)cc1` (racemic) [Example 24, rac-N-[(3S,4R)-4-(3,4-Dichloro-phenyl)-1-(4-methanesulfonyl-piperazine-1-carbonyl)-pyrrolidin-3-yl]-4-dimethylamino-N-methyl-benzamide]: the inhibitory constant (Ki) came out at 1.72 nM.
